In this experiment the target is aldosterone synthase (CYP11B2) (Macaca fascicularis, UniProt A0A2K5UPL9). The experiment can be described thus: aldosterone synthase inhibition assay. In kind it is biochemical, cynomolgus monkey. Conditions: cynomolgus adrenal gland mitochondria, 2 μM corticosterone, aldosterone quantified by mass spectrometry. In short, it runs like this: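 Cynomolgus adrenal mitochondria ([…]) used as CYP11B2 source with 2 μM corticosterone in 100 mM potassium phosphate pH 7.4, 1% DMSO; reaction started with 1 mM NADPH, run 60-90 min at 37° C. Aldosterone measured by mass spectrometry; IC50 from 4-parameter logistic fit, no-NADPH blank as 0%.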
aldosterone synthase (CYP11B2), sequence (A0A2K5UPL9 1-503): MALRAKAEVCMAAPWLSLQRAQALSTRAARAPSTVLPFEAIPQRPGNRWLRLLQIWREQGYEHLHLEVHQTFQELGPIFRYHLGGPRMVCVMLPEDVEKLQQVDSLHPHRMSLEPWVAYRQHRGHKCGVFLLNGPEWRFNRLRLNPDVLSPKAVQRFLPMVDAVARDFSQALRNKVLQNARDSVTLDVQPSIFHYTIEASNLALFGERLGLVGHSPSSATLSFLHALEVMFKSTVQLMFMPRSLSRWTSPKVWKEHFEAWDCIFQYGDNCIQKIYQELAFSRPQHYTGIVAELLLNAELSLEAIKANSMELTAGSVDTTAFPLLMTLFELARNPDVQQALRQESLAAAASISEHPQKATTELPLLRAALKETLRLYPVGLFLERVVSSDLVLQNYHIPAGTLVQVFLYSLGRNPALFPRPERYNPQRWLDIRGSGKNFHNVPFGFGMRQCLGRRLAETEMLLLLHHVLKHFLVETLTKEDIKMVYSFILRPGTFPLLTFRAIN
In turn, `OC1COCc2c(-c3ccn4ccnc4c3)cncc21` (single isomer, unassigned) [Compound 99, 8-Imidazo[1,2-a]pyridin-7-yl-3,4-dihydro-1H-pyrano[4,3-c]pyridin-4-ol] came in with a half-maximal inhibitory concentration (IC50) of 5000 nM.
The value for `OC1COCc2c(-c3ccc4nncn4c3)cncc21` (single isomer, unassigned) [Compound 100, 8-[1,2,4]Triazolo[4,3-a]pyridin-6-yl-3,4-dihydro-1H-pyrano[4,3-c]pyridin-4-ol] was 2300 nM.
The compound `OC1COCc2c(-c3ccn4ccnc4c3)cncc21` (single isomer, unassigned) [Compound 101, 8-Imidazo[1,2-a]pyridin-7-yl-3,4-dihydro-1H-pyrano[4,3-c]pyridin-4-ol] came in with an IC50 of 225 nM. This IC50 lies about 10-fold lower than the previous one.
The value for `O=C1CCc2cc(-c3cncc4c3COCC4O)ccc21` (single isomer, unassigned) [Compound 103, 5-(4-Hydroxy-3,4-dihydro-1H-pyrano[4,3-c]pyridin-8-yl)-indan-1-one] was 10 nM.
The value for `NC(=O)c1cccc2cc(-c3cncc4c3COCC4O)cnc12` (single isomer, unassigned) [Compound 104, 3-(4-Hydroxy-3,4-dihydro-1H-pyrano[4,3-c]pyridin-8-yl)-quinoline-8-carboxylic acid amide] was 81 nM; that for `NC(=O)c1cccc2cc(-c3cncc4c3COCC4O)cnc12` (single isomer, unassigned) [Compound 105, 3-(4-Hydroxy-3,4-dihydro-1H-pyrano[4,3-c]pyridin-8-yl)-quinoline-8-carboxylic acid amide] was 51.1 nM.
The value for `Cn1ncc2c(C#N)cc(-c3cncc4c3COCC4O)cc21` (single isomer, unassigned) [Compound 106, 6-(4-Hydroxy-3,4-dihydro-1H-pyrano[4,3-c]pyridin-8-yl)-1-methyl-1H-indazole-4-carbonitrile] was 599 nM.
In turn, `OC1COCc2c(-c3ccc4c(c3)COCCO4)cncc21` (single isomer, unassigned) [Compound 107, 8-(2,3-Dihydro-5H-benzo[e][1,4]dioxepin-7-yl)-3,4-dihydro-1H-pyrano[4,3-c]pyridin-4-ol] yielded an IC50 of 79.9 nM.
The value for `OC1COCc2c(-c3ccc4c(c3)COCCO4)cncc21` (single isomer, unassigned) [Compound 108, 8-(2,3-Dihydro-5H-benzo[e][1,4]dioxepin-7-yl)-3,4-dihydro-1H-pyrano[4,3-c]pyridin-4-ol] was 771 nM.
The value for `CC(=O)N1Cc2ccc(-c3cncc4c3COCC4O)cc2C1` (single isomer, unassigned) [Compound 109, 1-[5-(4-Hydroxy-3,4-dihydro-1H-pyrano[4,3-c]pyridin-8-yl)-1,3-dihydro-isoindol-2-yl]-ethanone] was 544 nM; that for `O=c1ccoc2cc(-c3cncc4c3COCC4O)ccc12` (single isomer, unassigned) [Compound 110, 7-(4-Hydroxy-3,4-dihydro-1H-pyrano[4,3-c]pyridin-8-yl)-chromen-4-one] was 13 nM.
With `OC1c2cncc(-c3ccc4c(c3)COCCO4)c2COC12CC2` (single isomer, unassigned) [Compound 111, 8-(3,5-dihydro-2H-1,4-benzo[e][1,4]dioxepin-7-yl)spiro[1,4-dihydropyrano[4,3-c]pyridine-3,1′-cyclopropane]-4-ol] the figure was 114 nM.
Take `OC1c2cncc(-c3ccc4c(c3)COCCO4)c2COC12CC2` (single isomer, unassigned) [Compound 112, 8-(3,5-dihydro-2H-1,4-benzo[e][1,4]dioxepin-7-yl)spiro[1,4-dihydropyrano[4,3-c]pyridine-3,1′-cyclopropane]-4-ol]: the IC50 was 40.9 nM.
The value for `Cn1nc(C#N)c2ccc(-c3cncc4c3COCC4O)cc21` (single isomer, unassigned) [Compound 113, 6-(4-Hydroxy-3,4-dihydro-1H-pyrano[4,3-c]pyridin-8-yl)-1-methyl-1H-indazole-3-carbonitrile] was 14.5 nM; that for `Cc1noc2ccc(-c3cncc4c3COC3(CC3)C4O)cc12` (single isomer, unassigned) [Compound 114, 8-(3-methyl-1,2-benzoxazol-5-yl)spiro[1,4-dihydropyrano[4,3-c]pyridine-3,1′-cyclopropane]-4-ol] was 18.8 nM.
As for `O=C1CCCc2ccc(-c3cncc4c3COCC4O)cc21` (single isomer, unassigned) [Compound 115, 7-(4-Hydroxy-3,4-dihydro-1H-pyrano[4,3-c]pyridin-8-yl)-3,4-dihydro-2H-naphthalen-1-one], the IC50 turned out to be 580 nM.
For `O=C1CCCc2ccc(-c3cncc4c3COCC4O)cc21` (single isomer, unassigned) [Compound 116, 7-(4-Hydroxy-3,4-dihydro-1H-pyrano[4,3-c]pyridin-8-yl)-3,4-dihydro-2H-naphthalen-1-one], the 50% inhibitory concentration (IC50) was determined as 26.3 nM.
The value for `O=C1CCCc2cc(-c3cncc4c3COCC4O)ccc21` (single isomer, unassigned) [Compound 117, 6-(4-Hydroxy-3,4-dihydro-1H-pyrano[4,3-c]pyridin-8-yl)-3,4-dihydro-2H-naphthalen-1-one] was 103 nM.
`O=C1CCCc2cc(-c3cncc4c3COCC4O)ccc21` (single isomer, unassigned) [Compound 118, 6-(4-Hydroxy-3,4-dihydro-1H-pyrano[4,3-c]pyridin-8-yl)-3,4-dihydro-2H-naphthalen-1-one] displayed an IC50 of 12.5 nM.
The value for `O=C1NCCc2ccc(-c3cncc4c3COCC4O)cc21` (single isomer, unassigned) [Compound 119, 7-(4-Hydroxy-3,4-dihydro-1H-pyrano[4,3-c]pyridin-8-yl)-3,4-dihydro-2H-isoquinolin-1-one] was 960 nM; that for `O=C1NCCc2cc(-c3cncc4c3COCC4O)ccc21` (single isomer, unassigned) [Compound 120, 6-(4-Hydroxy-3,4-dihydro-1H-pyrano[4,3-c]pyridin-8-yl)-3,4-dihydro-2H-isoquinolin-1-one] was 790 nM.
The compound `O=C1NCCc2cc(-c3cncc4c3COCC4O)ccc21` (single isomer, unassigned) [Compound 121, 6-(4-Hydroxy-3,4-dihydro-1H-pyrano[4,3-c]pyridin-8-yl)-3,4-dihydro-2H-isoquinolin-1-one] had a half-inhibitory concentration (IC50) of 95 nM.
In turn, `O=C1CCOc2cc(-c3cncc4c3COCC4O)ccc21` (single isomer, unassigned) [Compound 122, 7-(4-Hydroxy-3,4-dihydro-1H-pyrano[4,3-c]pyridin-8-yl)-chroman-4-one] yielded an IC50 of 194 nM.
With `O=C1CCOc2cc(-c3cncc4c3COCC4O)ccc21` (single isomer, unassigned) [Compound 123, 7-(4-Hydroxy-3,4-dihydro-1H-pyrano[4,3-c]pyridin-8-yl)-chroman-4-one] the figure was 16.3 nM.
As for `CN1CCc2cc(-c3cncc4c3COCC4O)ccc2C1=O` (single isomer, unassigned) [Compound 124, 6-(4-Hydroxy-3,4-dihydro-1H-pyrano[4,3-c]pyridin-8-yl)-2-methyl-3,4-dihydro-2H-isoquinolin-1-one], the IC50 was found to be 1010 nM.
With `O=c1ccc2cc(-c3cncc4c3COCC4O)ccc2o1` (single isomer, unassigned) [Compound 125, 6-(4-Hydroxy-3,4-dihydro-1H-pyrano[4,3-c]pyridin-8-yl)-chromen-2-one] the figure was 22.8 nM.
The value for `O=c1ccc2cc(-c3cncc4c3COCC4O)ccc2o1` (single isomer, unassigned) [Compound 126, 6-(4-Hydroxy-3,4-dihydro-1H-pyrano[4,3-c]pyridin-8-yl)-chromen-2-one] was 14 nM; that for `OC1COCc2c(-c3ccc4c(Cl)n[nH]c4c3)cncc21` (single isomer, unassigned) [Compound 127, 8-(3-Chloro-1H-indazol-6-yl)-3,4-dihydro-1H-pyrano[4,3-c]pyridin-4-ol] was 6.7 nM.
With `CCC(=O)NC1COCc2c(-c3ccc4c(Cl)n[nH]c4c3)cncc21` (single isomer, unassigned) [Compound 128, N-[8-(3-Chloro-1H-indazol-6-yl)-3,4-dihydro-1H-pyrano[4,3-c]pyridin-4-yl]-propionamide] the figure was 11.2 nM; with `CCS(=O)(=O)NC1COCc2c(-c3ccc4c(Cl)n[nH]c4c3)cncc21` (single isomer, unassigned) [Compound 129, Ethanesulfonic acid [8-(3-chloro-1H-indazol-6-yl)-3,4-dihydro-1H-pyrano[4,3-c]pyridin-4-yl]-amide], 45.9 nM; with `OC1COCc2c(-c3cc(Cl)c4cn[nH]c4c3)cncc21` (single isomer, unassigned) [Compound 130, 8-(4-Chloro-1H-indazol-6-yl)-3,4-dihydro-1H-pyrano[4,3-c]pyridin-4-ol], 238 nM.
Compound `OC1CCOc2ccc(-c3cncc4c3COCC4O)cc21` (single isomer, unassigned) [Compound 131, 8-(4-Hydroxy-chroman-6-yl)-3,4-dihydro-1H-pyrano[4,3-c]pyridin-4-ol] yielded an IC50 of 1470 nM. This IC50 is about 6.2-fold higher than that of the compound before.
The compound `CCC(=O)NC1COCc2c(-c3ccc4c(c3)C(O)CCO4)cncc21` (single isomer, unassigned) [Compound 132, N-[8-(4-Hydroxy-chroman-6-yl)-3,4-dihydro-1H-pyrano[4,3-c]pyridin-4-yl]-propionamide] yielded an IC50 of 518 nM.
With `CCS(=O)(=O)NC1COCc2c(-c3ccc4c(c3)C(O)CCO4)cncc21` (single isomer, unassigned) [Compound 133, Ethanesulfonic acid [8-(4-hydroxy-chroman-6-yl)-3,4-dihydro-1H-pyrano[4,3-c]pyridin-4-yl]-amide] the figure was 1470 nM.
With `OC1CCOc2ccc(-c3cncc4c3COCC4O)cc21` (single isomer, unassigned) [Compound 134, 8-(4-Hydroxy-chroman-6-yl)-3,4-dihydro-1H-pyrano[4,3-c]pyridin-4-ol] the figure was 253 nM.

These data come from patent US9890171B2, “Aldosterone synthase inhibitors” (Boehringer Ingelheim International GmbH, priority 2014, dated 2018).
